The values that follow come from US11833162B2, “Macrocyclic derivatives, process for preparing same and pharmaceutical compositions containing same” (LES LABORATOIRES SERVIER, priority 2017, dated 2023).

The target of one assay is Bcl-2 protein (histag-Bcl-2, UniProtKB P10415) (Homo sapiens, UniProt P10415). The assay is described as follows: Inhibition of Bcl-2 by the fluorescence polarisation technique. Type of assay: binding. The settings on record: for IC50: fluorescence polarisation, 2 hours incubation, read-out: IC50 (μM) Bcl-2 FP; for Bcl-2 FP, % at given concentration: @10 μM. As for the experimental part: The fluorescence polarisation tests were carried out on microplates (384 wells). The Bcl-2 protein, labelled (histag-Bcl-2 such that Bcl-2 corresponds to the UniProtKB® primary accession number: P10415), at a final concentration of 5×10^−9M, is mixed with a fluorescent peptide (Fluorescein-REIGAQLRRMADDLNAQY), at a final concentration of 1.00×10^−9M in a buffer solution (Hepes 10 mM, NaCl 150 mM, Tween20 0.05%, pH 7.4), in the presence or absence of increasing concentrations of test compounds. After incubation for 2 hours, the fluorescence polarisation is measured.
For orientation: Polarisation of emitted light reports the rotation of a fluorescent probe.

The subject of assay [1] is RS4; 11 leukaemia tumour line. Put plainly: In vitro cytotoxicity, Microculture Tetrazolium Assay (MTT). The settings on record: Homo sapiens, RS4-11, 48 h, 11 cells, 48 hours exposure. The format is cell-based. The procedure: The cytotoxicity studies were carried out on the RS4; 11 leukaemia tumour line.
The cells are distributed onto microplates and exposed to the test compounds for 48 hours.
The cell viability is then quantified by a colorimetric assay, the Microculture Tetrazolium Assay (Cancer Res., 1987, 47, 939-942).

Chain of Bcl-2 protein (P10415 whole entry): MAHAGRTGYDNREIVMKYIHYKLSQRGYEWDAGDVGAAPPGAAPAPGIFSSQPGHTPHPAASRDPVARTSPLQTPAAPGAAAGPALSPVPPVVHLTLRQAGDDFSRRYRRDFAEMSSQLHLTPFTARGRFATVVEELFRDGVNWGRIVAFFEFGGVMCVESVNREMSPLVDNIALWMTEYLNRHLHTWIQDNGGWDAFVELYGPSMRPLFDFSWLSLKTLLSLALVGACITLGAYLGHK

For `Cc1c2cc(n1C)-c1cc(Cl)ccc1C(=O)N1CCc3c(cccc3OCCCCOc3ncc(cn3)N(c3ccc(O)cc3)C2=O)C1` [Example 41, 10-Chloro-2-(4-hydroxyphenyl)-5,6-dimethyl-24,29-dioxa-2,6,15,31,34-pentaazahexacyclo[28.2.2.1˜4,7˜.1˜15,19˜.0˜8,13˜.0˜18,23˜]hexatriaconta-1(32),4,7(36),8,10,12,18,20,22,30,33-undecaene-3,14-dione], the IC50 (as a rule, the midpoint of a concentration-inhibition curve) at Bcl-2 protein was 0.0467 µM; in assay [1], 0.197 µM.

As for `Cc1c2cc(n1C)-c1cc(F)ccc1C(=O)N1CCc3c(cccc3OCCc3c(cnn3C)N(c3ccc(O)cc3)C2=O)C1` [Example 20, 11-Fluoro-4-(4-hydroxyphenyl)-1,8-trimethyl-1,4,16,17,23,24-hexahydro-14H-15,18-methano-6,9-(metheno)dibenzo[l,r]pyrazolo[3,4-d][1,6,10,15]oxatriazacyclo-nonadecine-5,14(8H)-dione], the IC50 was determined as 0.0123 µM on Bcl-2 protein and 0.0812 µM in assay [1].

As to `Cc1c2cc(n1C)-c1cc(Cl)ccc1C(=O)N1CCc3c(cccc3OCCCCOc3cccc(c3)N(c3ccc(O)cc3)C2=O)C1` [Example 3, 6-Chloro-14-(4-hydroxyphenyl)-10,11-dimethyl-20,25-dioxa-1,10,14-triazahexacyclo[28.3.1.1˜9,12˜.1˜15,19˜.0˜3,8˜.0˜26,31˜]hexatriaconta-3,5,7,9(36),11,15(35),16,18,26,28,30-undecaene-L 3-dione], the concentration for half-maximal inhibition (IC50) on Bcl-2 protein amounted to 0.0655 µM; in assay [1], 0.749 µM.

In the case of `Cc1c2cc(n1C)-c1cc(Cl)ccc1C(=O)N1CCc3c(cccc3OCCCCCOc3ncc(cn3)N(c3ccc(O)cc3)C2=O)C1` [Example 40, 10-Chloro-2-(4-hydroxyphenyl)-5,6-dimethyl-24,30-dioxa-2,6,15,32,35-pentaazahexacyclo[29.2.2.1˜4,7˜.1˜15,19˜.0˜8,13˜.0˜8,23˜]heptatriaconta-1(33),4,7(37),8,10,12,18,20,22,31,34-undecuene-3,14-dione], the half-inhibitory concentration (IC50) on Bcl-2 protein came out at 0.0064 µM; in assay [1], 0.0299 µM.

For the compound `Cc1c2cc(n1C)-c1cc(Cl)ccc1C(=O)N1CCc3c(cccc3OCCOc3cc(C#N)cc(c3)N(c3ccc(O)cc3)C2=O)C1` [Example 4, 6-Chloro-14-(4-hydroxyphenyl)-10,11-dimethyl-2,13-dioxo-20,23-dioxa-1,10,14-triazahexacyclo[26.3.1.1˜9,12˜.1˜5,19˜.0˜3,8˜.0˜24.29˜]tetratriaconta-3,5,7,9(34),11,15(33),16,18,24,26,28-undecaene-17-carbonitrile], the figures for the half-maximal inhibitory concentration (IC50) (at Bcl-2 protein; in assay [1]) were 0.0023 µM and 0.00773 µM, respectively.

For the compound `Cc1c2cc(n1C)-c1cc(Cl)ccc1C(=O)N1CCc3c(cccc3OCCCc3cc(C#N)cc(c3)N(c3ccc(O)cc3)C2=O)C1` [Example 9, 6-Chloro-14-(4-hydroxyphenyl)-10,11-dimethyl-2,13-dioxo-23-oxa-1,10,14-triazahexacyclo[26.3.1.1˜9,12˜.1˜15,19˜.0˜3,8˜.0˜24,29˜]tetratriaconta-3,5,7,9(34),11.15 (33),16,18,24,26,28-undecaene-17-carbonitrile], the IC50 came out at 0.0023 µM at Bcl-2 protein and 0.00524 µM in assay [1].

Take `Cc1c2cc(n1C)-c1cc(Cl)ccc1C(=O)N1CCc3c(cccc3OCCOCCOc3ncc(cn3)N(c3ccc(O)cc3)C2=O)C1` [Example 38, 10-Chloro-2-(4-hydroxyphenyl)-5,6-dimethyl-24,27,30-trioxa-2,6,15,32,35-pentaazahexacyclo[29.2.2.1˜4,7˜.1˜15,19˜.0˜8,13˜.0˜18,23˜]heptatriaconta-1(33),4,7(37), 8,10,12,18,20,22,31,34-undecuene-3,14-dione]: the IC50 on Bcl-2 protein was found to be 0.00385 µM; in assay [1], 0.0231 µM.

Regarding `Cc1c2cc(n1C)-c1cc(Cl)ccc1C(=O)N1Cc3ccccc3C(COc3ccc(C#N)cc3N(c3ccc(O)cc3)C2=O)C1` (stereo not drawn) [Example 13, 12-Chloro-5-(4-hydroxyphenyl)-8,9-dimethyl-6,15-dioxo-6,9,22,23-tetrahydro-5H,15H,17H-16,22-methano-7,10-(metheno)tribenzo[b,j,o][1,4,8,13]oxa-triazacyclooctadecine-3-carbonitrile], the figures for the IC50 (on Bcl-2 protein; in assay [1]) were 0.0332 µM and 0.239 µM, respectively.

Take `Cc1c2cc(n1C)-c1cc(Cl)ccc1C(=O)N1CCC(CC1)COCCOCCOc1ncc(cn1)N(c1ccc(O)cc1)C2=O` [Example 43, 6-Chloro-14-(4-hydroxyphenyl)-10,11-dimethyl-19,22,25-trioxa-1,10,14,17,32-pentaazapentacyclo[25.2.2.2˜15,18˜. 1˜9,12˜.0˜3,8˜]tetratriaconta-3,5,7,9(34),11,15,17,32-octaene-2,13-dione]: at Bcl-2 protein, the “Bcl-2 FP, % at given concentration” value stood at 34.8% @10 μM. In addition, the half-maximal inhibitory concentration (IC50) in assay [1] was above 1.88 µM.

On to `Cc1c2cc(n1C)-c1cc(Cl)ccc1C(=O)N1CCCC(COCCOCCOc3ncc(cn3)N(c3ccc(O)cc3)C2=O)C1` (stereo not drawn) [Example 42, 10-Chloro-2-(4-hydroxyphenyl)-5,6-dimethyl-21,24,27-trioxa-2,6,15,29,32-pentaazapentacyclo[26.2.2.1˜4,7˜.1˜15,19˜.0˜8,13˜]tetratriaconta-1(30),4, 7(34),8,10,12,28,31-octaene-3,14-dione], for which the “Bcl-2 FP, % at given concentration” value at Bcl-2 protein was found to be 39.2% @10 μM. Moreover, the half-maximal inhibitory concentration (IC50) in assay [1] is above 0.6 µM.

Turning to `Cc1c2cc(n1C)-c1cc(Cl)ccc1C(=O)N1Cc3ccccc3C(CCOc3c(cnn3C)N(c3ccc(O)cc3)C2=O)C1` (stereo not drawn) [Example 22, 11-Chloro-4-(4-hydroxyphenyl)-1,7,8-trimethyl-1,4,16,21,22,23-hexahydro-14H-15,21-methano-6,9-(metheno)dibenzo[j,o]pyrazolo[3,4-b][1,4,8,13]oxatriaza-cyclononadecine-5,14(8H)-dione], the half-maximal inhibitory concentration (IC50) on Bcl-2 protein amounted to 0.0153 µM; in assay [1], 0.0118 µM.

Consider `Cc1c2cc(n1C)-c1cc(Cl)ccc1C(=O)N1CCc3c(cccc3OCCCCn3c(C#N)cc(c3C)N(c3ccc(O)cc3)C2=O)C1` [Example 7, 6-Chloro-14-(4-hydroxyphenyl)-10,11,33-trimethyl-2,13-dioxo-23-oxa-1,10,14,18-tetraazahexacyclo[26.3.1.1˜9,12˜.1˜15,18˜.0˜3,8˜.0˜24,29˜]tetratriaconta-3,5,7,9(34),11,15(33),16,24,26,28-decaene-17-carbonitrile], for which the concentration for half-maximal inhibition (IC50) was determined as 0.003 µM at Bcl-2 protein and 0.00494 µM in assay [1].

On to `Cc1c2cc(n1C)-c1cc(Cl)ccc1C(=O)N1CCc3c(cccc3OCCOCCN(c3ccc(O)cc3)C2=O)C1` [Example 34, 18-chloro-11-(4-hydroxyphenyl)-14,15-dimethyl-6,7,10,11,23,24-hexahydro-9H,21H-1,22-methano-13,16-(metheno)dibenzo[m,s][1,4,7,11,16]dioxatriaza-cycloicosine-12,21(15H)-dione], for which the IC50 at Bcl-2 protein was found to be 0.0693 µM; in assay [1], 1.24 µM.

For the compound `Cc1c2cc(n1C)-c1cc(Cl)ccc1C(=O)N1CCc3c(cccc3OCCC[n+]3cccc(c3)N(c3ccc(O)cc3)C2=O)C1` [Example 30, 6-Chloro-14-(4-hydroxyphenyl)-10,11-dimethyl-2,13-dioxo-23-oxa-1,10,14-triaza-19-azoniahexacyclo[26.3.1.1˜9,12˜.1˜15,19˜.0˜3,8˜.0˜24,29˜]tetratriaconta-3,5,7,9(34),11,15(33),16,18,24,26,28-undecaene trifluoromethanesulphonate], the results for the half-maximal inhibitory concentration (IC50) (on Bcl-2 protein; in assay [1]) were 0.0314 µM and above 1.88 µM, respectively.

On to `Cc1c2cc(n1C)-c1cc(Cl)ccc1C(=O)N1CCc3c(cccc3OCCCn3c(C#N)cc(c3C)N(c3ccc(O)cc3)C2=O)C1` [Example 8, 6-Chloro-14-(4-hydroxyphenyl)-10,11,32-trimethyl-2,13-dioxo-22-oxa-1,10,14,18-tetraazahexacyclo[25.3.1.1˜9,12˜.1˜15,18˜.0˜3,8˜.0˜23,28˜]tritriaconta-3,5,7,9(33),11,15(32),16,23,25,27-decaene-17-carbonitrile], for which the IC50 at Bcl-2 protein came out at 0.00615 µM; in assay [1], 0.0493 µM.

In the case of `Cc1c2cc(n1C)-c1cc(Cl)ccc1C(=O)N1Cc3cccc(c3C1)OCCOCCOc1ncc(cn1)N(c1ccc(O)cc1)C2=O` [Example 36, 10-Chloro-2-(4-hydroxyphenyl)-5,6-dimethyl-23,26,29-trioxa-2,6,15,31,34-pentaazahexacyclo[28.2.2.1˜4,7˜.1˜15,18˜.0˜8,13˜.0˜17,22˜]hexatriaconta-1(32),4,7(36),8,10,12,17,19,21,30,33-undecaene-3,14-dione], the “Bcl-2 FP, % at given concentration” value at Bcl-2 protein is recorded as 41.5% @10 μM. For the same compound, in assay [1], the IC50 was above 0.6 µM.

On to `Cc1c2cc(n1C)-c1cc(Cl)ccc1C(=O)N1CCc3c(cccc3OCCc3c(cc(C#N)n3C)N(c3ccc(O)cc3)C2=O)C1` [Example 19, 11-Chloro-4-(4-hydroxyphenyl)-1,7,8-trimethyl-5,14-dioxo-1,4,5,8,16,17,23,24-octahydro-14H-15,18-methano-6,9-(metheno)dibenzo[l,r]pyrrolo-[2,3-d][1,6,10,15]oxatriazacyclononadecine-2-carbonitrile], for which the 50% inhibitory concentration (IC50) on Bcl-2 protein was determined as 0.0055 µM; in assay [1], 0.0103 µM.

Turning to `Cc1c2cc(n1C)-c1cc(F)ccc1C(=O)N1CCc3c(cccc3OCCOCCOc3ncc(cn3)N(c3ccc(O)cc3)C2=O)C1` [Example 37, 10-Fluoro-2-(4-hydroxyphenyl)-5,6-dimethyl-24,27,30-trioxa-2,6,15,32,35-pentaazahexacyclo[29.2.2.1˜4,7˜.1˜15,19˜.0˜8,13˜.0˜18,23˜]heptatriaconta-1(33),4,7(37),8,10,12,18,20,22,31,34-undecuene-3,14-dione], the IC50 worked out at 0.0102 µM at Bcl-2 protein and 0.0496 µM in assay [1].
